The values below come from US7652155B2, “Diamine derivative, production process therefor and antioxidant” (Nippon Soda Co., Ltd., priority 2003, dated 2010).

Structures can show the parent of a compound that is named as a salt. Where two headings read alike, the source gives them in different places. Where only a bound is given, the exact number is not on record here.

A short description of data set [1]: Acute oral toxicity in mice. The settings on record: mouse, in vivo; male mice, single oral dose, observed for 7 days. From the text:
A single dose of the test compounds according to the present invention was orally administered to male mice followed by observing for 7 days to determine the mortality rate. The compound indicated below was used for Control Drug 3.

The target in another data set is T1, 5-lipoxygenase (5-LO) (Homo sapiens, UniProt P09917).
T1 construct: human peripheral blood mononuclear cells; endogenous in cells; host or cells: human peripheral blood mononuclear cells
T1 sequence (P09917 1-674): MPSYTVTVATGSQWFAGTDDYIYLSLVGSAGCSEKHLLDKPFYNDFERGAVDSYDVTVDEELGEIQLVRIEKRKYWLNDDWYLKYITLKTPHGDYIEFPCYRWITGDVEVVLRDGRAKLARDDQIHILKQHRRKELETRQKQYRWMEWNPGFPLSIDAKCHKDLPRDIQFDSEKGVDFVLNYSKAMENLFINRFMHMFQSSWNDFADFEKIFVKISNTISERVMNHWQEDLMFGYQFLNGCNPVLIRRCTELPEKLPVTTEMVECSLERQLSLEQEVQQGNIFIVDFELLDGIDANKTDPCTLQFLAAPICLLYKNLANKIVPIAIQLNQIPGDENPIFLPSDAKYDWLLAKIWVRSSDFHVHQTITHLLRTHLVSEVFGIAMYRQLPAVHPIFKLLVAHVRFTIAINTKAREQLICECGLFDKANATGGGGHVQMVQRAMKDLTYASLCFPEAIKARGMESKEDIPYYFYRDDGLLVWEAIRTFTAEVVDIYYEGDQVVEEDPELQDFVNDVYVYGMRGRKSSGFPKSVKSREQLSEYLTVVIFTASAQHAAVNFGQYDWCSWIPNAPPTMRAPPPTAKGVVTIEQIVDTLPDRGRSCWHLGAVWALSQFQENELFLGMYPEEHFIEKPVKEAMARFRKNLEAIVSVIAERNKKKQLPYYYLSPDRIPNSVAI
Put plainly: 5-LO inhibitory activity (leucotriene B4 formation in human peripheral blood mononuclear cells, A23187). It is filed as cell-based. Conditions: 30 μM A23187, leucotriene B4, read-out: Lipoxygenase inhibitory action 50% inhibitory concentration (IC50), 5-LO. As to the method: 5-LO inhibitory activity was measured using a variation of the method of Carter et al. (Carter G. W. et al., J. Pharmacol. Exp. Ther., 256, 929 to 937, 1991). Namely, after pre-incubating (37° C., 15 minutes) in Hank's solution human peripheral blood mononuclear cells and a test compound dissolved in DMSO (final concentration: 1%), 30 μM A23187 was added and the resulting solution was additionally incubated (37° C., 30 minutes). The resulting leucotriene B4 that formed was quantified by enzyme immunoassay, and the 50% formation inhibitory concentration (μM) of the test compound with respect to 5-LO was calculated from that value.

In data set [2] the test system is mice administered ferrous chloride into the spinal subarachnoid cavity. The data set can be described thus: Antioxidative action in vivo: abnormal behavior and mortality after ferrous chloride into the spinal subarachnoid cavity. Details: species or system mouse. The settings on record: male Slc:ICR mice, 30 minutes before ferrous chloride, score after 60 minutes. As to the method:
The antioxidative action in vivo of the compounds according to the present invention was evaluated according to the method described in the Journal of Medical Chemistry (J. Med. Chem., 1997, vol. 40, pp. 559 to 573) based on the inhibitory effects on abnormal behavior and mortality rate following administration of ferrous chloride into the spinal subarachnoid cavity of mice. Male Slc:ICR mice (age: 5 weeks) (purchased from Japan SLC) were used in groups of 3 to 7 animals each, and were administered 5 μl of aqueous physiological saline solution containing 50 mM ferrous chloride into the spinal column between the 5th and 6th lumbar vertebra. […] The test compounds were dissolved or suspended in an aqueous physiological saline solution or an aqueous physiological saline solution containing 1% polyethylene hardened castor oil (manufactured by Nikko Chemicals CO., LTD. under the name of NIKKOL HCO-60), and administered intraperitoneally or orally 30 minutes before the administration of ferrous chloride. The 50% inhibitory dose (hereinafter, abbreviated as ID50) of each test compound was determined from the score of a control group (physiological saline treated group) and the score of each test compound treated group.

The subject of data set [3] is lipid peroxide in homogenates of brain, heart and kidneys. The data set can be described thus: Tissue migration: antioxidative action on lipids ex vivo after intraperitoneal administration. It is filed as in vivo. Conditions: Rattus norvegicus, ip, 0.5 h, male SD rats, 100 mg/kg intraperitoneally, 30 minutes after administration. As to the method:
(§1) The antioxidative action on lipids in vitro of the compounds according to the present invention was evaluated in accordance with the method of Malvy et al. (Malvy C. et al.,) described in Biochemical and Biophysical Research Communications, 1980, vol. 95, pp. 734 to 737,) by measuring the lipid peroxide activity in a rat brain homogenate. Namely, the rat brain was removed followed by the addition of five volumes of an aqueous solution of phosphate buffered saline (pH 7.4) (hereinafter, abbreviated as PBS) to the brain while cooling with water, homogenizing with a Teflon homogenizer, and centrifuging for 20 minutes at 10,000 g to collect the supernatant as a brain homogenate. 500 μM cysteine, 5 μM ferrous sulfate, and 100 mM KCl were added to the resulting brain homogenate followed by incubating for 30 minutes at 37° C. and measuring the malondialdehyde that formed due to decomposition of lipid peroxide using the thiobarbituric acid method. The 50% inhibitory concentrations (hereinafter, abbreviated as IC50) of the compounds according to the present invention were then determined from the measured values.
Tissue migration of the compounds according to the present invention was evaluated by measuring the antioxidative action on lipids ex vivo. A test compound dissolved or suspended in an aqueous physiological saline solution or aqueous physiological saline solution containing 1% polyethylene hardened castor oil (Nikko Chemicals: Nikkol HCO-60) was intraperitoneally administered to male SD rats (age: 6 weeks) (purchased from Japan SLC) in groups of 3 animals each at a dose of 100 mg/kg. The animals were sacrificed by exsanguination by severing the carotid artery 30 minutes after administration followed by removing the brain, heart and kidneys. The lipid peroxide activity of homogenates of each tissue was measured using the method described in Example 4. The inhibition rates of the test compounds in each tissue were determined from the amounts of lipid peroxide formed in a control group (physiological saline dose group) and test compound groups.

Data set [4] has as its system lipid peroxides in retina homogenate. The data set can be described thus: Retina migration: formation of lipid peroxides in retina ex vivo after oral administration. Details: species or system rat. The settings on record: male SD rats, retinas removed 30 minutes later, auto-oxidized 1 hour at 37° C. The method, then: The retina migration of the compounds according to the present invention was evaluated. The test compounds dissolved or suspended in 0.1 N aqueous hydrochloric acid solution or 1% polyethylene hardened castor oil (Nikkol HCO-60) solution were orally administered to male SD rats (age: 6 weeks) in groups of three animals each followed by removing both eyes 30 minutes later and separating the retinas while cooling with ice. The retinas were homogenized with a Polytron Microhomogenizer (NS-310E: manufactured by Niti-On Medical and Physical Instruments) in 0.1 M Tris-HCl buffer (pH 7.4) while cooling with ice to prepare 5% homogenates. The homogenates were then auto-oxidized for 1 hour at 37° C., and the amounts of lipid peroxide that formed were quantified using the thiobarbituric acid method (Masugi, et al., Vitamin, 51, 21 to 29, 1977).

The target in another data set is T2, 15-lipoxygenase (15-LO) (Oryctolagus cuniculus, UniProt P12530).
T2 construct: 15-LO obtained from rabbit reticulocytes; from tissue; host or cells: rabbit reticulocytes
T2 sequence (P12530 1-663): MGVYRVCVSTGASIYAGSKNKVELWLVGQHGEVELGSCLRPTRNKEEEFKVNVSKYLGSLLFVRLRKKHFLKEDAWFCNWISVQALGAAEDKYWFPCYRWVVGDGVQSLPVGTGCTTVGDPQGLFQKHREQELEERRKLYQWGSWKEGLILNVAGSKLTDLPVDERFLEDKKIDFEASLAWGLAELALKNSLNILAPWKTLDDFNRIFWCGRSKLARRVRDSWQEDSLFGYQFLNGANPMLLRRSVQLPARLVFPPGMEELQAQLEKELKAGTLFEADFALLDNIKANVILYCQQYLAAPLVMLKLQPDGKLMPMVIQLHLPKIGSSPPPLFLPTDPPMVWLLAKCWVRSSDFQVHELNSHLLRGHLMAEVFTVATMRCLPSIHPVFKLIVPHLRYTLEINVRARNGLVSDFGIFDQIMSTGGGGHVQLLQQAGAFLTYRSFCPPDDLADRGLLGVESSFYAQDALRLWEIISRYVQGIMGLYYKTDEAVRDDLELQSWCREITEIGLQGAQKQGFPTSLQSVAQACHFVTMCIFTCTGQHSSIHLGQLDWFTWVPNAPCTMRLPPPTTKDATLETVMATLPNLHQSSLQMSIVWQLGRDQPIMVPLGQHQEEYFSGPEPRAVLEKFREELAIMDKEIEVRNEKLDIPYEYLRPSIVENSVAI
The data set can be described thus: 15-LO inhibitory activity (15-LO from rabbit reticulocytes, linoleic acid). The format is biochemical. The settings on record: 256 μM linoleic acid, 4° C., read-out: Lipoxygenase inhibitory action 50% inhibitory concentration (IC50), 15-LO. As to the method: 15-LO inhibitory activity was measured using a variation of the method of Auerbach et al. (Auerbach B. J. et al., Anal. Biochem., 201, 375 to 380, 1992). Namely, after pre-incubating (4° C., 15 minutes) in phosphate buffer (pH 7.4) 15-LO obtained from rabbit reticulocytes and a test compound dissolved in DMSO (final concentration: 1%), 256 μM linoleic acid was added and the resulting solution was additionally incubated (4° C., 10 minutes). The resulting 15-HETE that formed was quantified by spectrophotometry (OD660 nm), and the 50% formation inhibitory concentration (μM) of the test compound with respect to 15-LO was calculated from that value.

Data set [5] concerns 66 kDa protein in rat retina. Put plainly: Inhibitory action on increases in 66 kDa protein in UV-A irradiated rat retina. It is filed as in vivo. Conditions: male Wistar rats, 100 mg/kg p.o. 30 minutes before UV-A (12 mW/cm^2, 30 minutes); retinas 48 hours after irradiation; N = 3. As to the method: The inhibitory action of the compound according to the present invention on increases in 66 kDa protein in rat retina irradiated with UV light was evaluated. The test compound was dissolved or suspended in 0.1 N aqueous hydrochloric acid solution or 1% polyethylene hardened castor oil (Nikkol HCO-60) and orally administered to male Wistar rats (age: 7-9 weeks) followed 30 minutes later by irradiation of the right eye with UV-A (12 mW/cm^2) for 30 minutes using a UV spot light source. In addition, the left eye was not irradiated and used as a control. The rats were housed in an environment blocked from interior light both during UV-A irradiation and for 2 hours before and after irradiation. The retinas were separated 48 hours after irradiation and 5% homogenates were prepared using the same method as described in Example 4. Changes in retina protein were determined by SDS-polyacrylamide gel electrophoresis in accordance with the method of Lammli (Nature, […], 680 to 685, 1970). […] Subsequently, the gel was decolored with a mixture of ethanol, acetic acid, and water (25:8:65) and the 66 kDa protein following electrophoresis was analyzed by densitrography. The amount of protein in the samples was determined using the Lowry method.

Data set [6] relates to lipid peroxide in rat brain homogenate. The data set can be described thus: Antioxidative action on lipids in vitro (lipid peroxide activity in rat brain homogenate, thiobarbituric acid method). It is filed as biochemical. Conditions: 500 μM cysteine, 5 μM ferrous sulfate, 100 mM KCl, 30 minutes at 37° C., malondialdehyde, read-out: 50% inhibitory concentration of anti-lipid peroxide action in vitro (IC50). The method, then:
as §1

Setting [7] is: brain homogenate, read-out: Inhibition rate of ex vivo anti-lipid peroxide action, Brain.
Where [8] appears, read: heart homogenate, read-out: Inhibition rate of ex vivo anti-lipid peroxide action, Heart.
The mark [9] stands for this setting: kidney homogenate, read-out: Inhibition rate of ex vivo anti-lipid peroxide action, Kidney.

One may read the LD50 as the dose at which mortality reaches 50%. Lower therefore signals a more toxic substance. By inhibition is commonly meant the drop in the measured response relative to a control, in per cent.

In the case of `Cc1c(C)c2c(c(C)c1N)CC(C)(CN1CCC(c3ccccc3)CC1)O2` (centres unmarked) [Control Drug 2, reference compound], in data set [1], the LD50 at 7 days is below 300 mg/kg. Moreover, the IC50 at 5-lipoxygenase (5-LO) was above 10 µM.

In the case of `Cc1c(C)c2c(c(CN)c1N)CC(C)(C)O2` [Compound No. 1], in data set [2], the “Antioxidative action in vivo 50% inhibitory dose (ID50), Intraperitoneal administration” value was determined as 1.8 mg/kg. Moreover, in data set [2], the “Antioxidative action in vivo 50% inhibitory dose (ID50), Oral administration” value turned out to be 6 mg/kg. For the same compound, the inhibition at 100 mg/kg is 93% in data set [3] (setting [7]), 81% in data set [3] (setting [8]) and 83% in data set [3] (setting [9]). The LD50 at 7 days in data set [1] was above 1000 mg/kg. In addition, in data set [4], the “Inhibitory effect on formation of lipid peroxides in retina ex vivo 30% inhibitory concentration (ID30, oral administration)” value was determined as 16 mg/kg. For the same compound, the results for the IC50 at 15-lipoxygenase (15-LO) and on 5-lipoxygenase (5-LO) were 3.74 µM and above 10 µM, respectively. In addition, the “Ratio of 66 kDa protein in UV-irradiated rat retina (right eye: irradiated/left eye: non-irradiated)” value in data set [5] was 1.45.

For the compound `Cc1c(C)c2c(c(N)c1N)CC(C)(C)O2` [Control drug 1, reference compound], the “Antioxidative action in vivo 50% inhibitory dose (ID50), Intraperitoneal administration” value in data set [2] is reported as above 30 mg/kg. Also, in data set [2], the “Antioxidative action in vivo 50% inhibitory dose (ID50), Oral administration” value was above 30 mg/kg. Also, the inhibition at 100 mg/kg is 94% in data set [3] (setting [7]), 84% in data set [3] (setting [8]) and 87% in data set [3] (setting [9]). Besides, in data set [6], the IC50 was 1.4 µM.

Take `Cc1c(C)c2c(c(CN)c1N)CCC(C)(C)O2` [Compound No. 2, 2,2,7,8-tetramethyl-5-aminomethyl-6-aminochroman•-dihydrochloride]: in data set [2], the “Antioxidative action in vivo 50% inhibitory dose (ID50), Intraperitoneal administration” value was found to be 2.6 mg/kg. Besides, the “Antioxidative action in vivo 50% inhibitory dose (ID50), Oral administration” value in data set [2] stood at 12 mg/kg. Also, the inhibition at 100 mg/kg came to 98% in data set [3] (setting [7]), 96% in data set [3] (setting [8]) and 97% in data set [3] (setting [9]). The LD50 at 7 days in data set [1] was above 1000 mg/kg. The “Inhibitory effect on formation of lipid peroxides in retina ex vivo 30% inhibitory concentration (ID30, oral administration)” value in data set [4] was determined as 6.9 mg/kg. Also, the IC50 in data set [6] is 0.34 µM.
